The test system of data set [1] is vaginal/cervical epithelial and other cells. Particulars: in vitro; cited from earlier work.
The subject of the next data set is HSV-2 strain 186. The data set can be described thus: Genital herpes infection in the mouse model. It counts as in vivo, mice. The following applies: Table IV, 20 sec before virus inoculation; for Protected Against Disease, Number / Protected Against Infection, Number: 15 inoculated.

Marks after values point to notes of the source that are not given here.

Regarding nonoxynol-9 [N-9], the “lowest concentration injuring cells” value in data set [1] was “about 0.0005%”. Also, in the data set on HSV-2 strain 186 (N-9 5% in PBS), the “Protected Against Disease, %” value is given as 40^d %; the “Protected Against Infection, %” value is recorded as 13%; the “Protected Against Disease, Number” value came out at 6; the “Protected Against Infection, Number” value came out at 2. Moreover, in the data set with HSV-2 strain 186 (N-9 50% in PBS), the “Protected Against Disease, %” value is recorded as 100^c %; the “Protected Against Infection, %” value is listed as 93^c %; the “Protected Against Disease, Number” value is 15. Also, in the data set with HSV-2 strain 186 (N-9 100% in PBS), the “Protected Against Disease, %” value is listed as 100^c %; the “Protected Against Infection, %” value is on record as 93^c %; the “Protected Against Disease, Number” value stood at 15; the “Protected Against Infection, Number” value is 14. In the data set on HSV-2 strain 186 (N-9 in PBS), the “Protected Against Infection, Number” value is 14.

Source of the values: patent US6706276B2, “Compositions and methods for trapping and inactivating pathogenic microbes and spermatozoa” (Rush-Presbyterian-St. Luke's Medical Center, priority 2000, dated 2004).
